Key:
[1] = system: corneal barrier of the in vitro cornea device (epithelial, fibroblast, endothelial triculture); assay: Permeability of the in vitro cornea device to FSS after trypan blue exposure; type: cell-based; conditions: trypan blue injected into TFEp channel at 3 μL/min for 4 min, incubated at 37° C. for 15 min; then FSS injected into TFEp channel and permeability assayed; worded "can be"
Description: (§1) In some embodiments, all channels of the device can be coated with human fibronectin to facilitate cellular attachment. For example, primary human corneal fibroblasts can be seeded on Day 0. Fibroblasts can be harvested, concentrated to 1×10^7 cells/mL and injected into the stromal chamber via a remote head syringe pump at 5 μL/min until cells are homogenously distributed. Devices can then be incubated at 37° C., 5% CO2 for 4 hours to allow for attachment. Media can be subsequently refreshed every 24 hours. Primary human corneal epithelial cells can be seeded into the TFEp circulation channel on Day 3. […]
(§2) Viability can be assessed on-chip as an endpoint for epithelial, fibroblast, and endothelial cells. Devices are prepared for viability quantitation by incubation with calcein AM and ethidium homodimer in PBS. After rinsing the cells with PBS, fluorescent images are taken via microscope, and the data was analyzed to determine cornea triculture viability (scc, FIG. 5A). […]
Following exposure, FSS can be injected into the TFEp channel and permeability assayed. […] Samples can be taken from cell-laden channels (individually or combined) and placed in a low volume, white walled […] plate for luminescence analysis using a plate reader. […] The increase in AK release in arbitrary luminescence units compares the toxic exposure of trypan blue to positive and negative controls. […]

[2] = system: cells of the in vitro cornea device (cell-laden channels); assay: Cytotoxicity by adenylate kinase release (luminescence) from the cell-laden channels of the in vitro cornea device; type: cell-based; conditions: trypan blue exposure; compared with positive control (100% death by lysis buffer) and negative control (media only); arbitrary luminescence units; worded "expected"
Description: as §1, §2
Following exposure, FSS can be injected into the TFEp channel and permeability assayed. […] Samples can be taken from cell-laden channels (individually or combined) and placed in a low volume, white walled […] plate for luminescence analysis using a plate reader. […] The increase in AK release in arbitrary luminescence units compares the toxic exposure of trypan blue to positive and negative controls.

In the case of Cc1cc(-c2ccc(/N=N/c3c(S(=O)(=O)O)cc4cc(S(=O)(=O)O)cc(N)c4c3O)c(C)c2)ccc1/N=N/c1c(S(=O)(=O)O)cc2cc(S(=O)(=O)O)cc(N)c2c1O [trypan blue], the “Permeability in trypan blue treated devices compared to controls” value [1] is reported as 10 fold and the “Increase in adenylate kinase release” value [2] is reported as 1.5 fold.
